# Measurements as given in PMC8746970, “Determination of the Peptide AWRK6 in Rat Plasma by Liquid Chromatography-Tandem Mass Spectrometry (LC-MS/MS) and Its Application to Pharmacokinetics” (Molecules, 2021).
# Read-outs that look alike come from different tables or passages of the source. No end group written: not given here.
# Experiment: Pharmacokinetic study of AWRK6 in rats after intraperitoneal or intravenous injection, plasma LC-MS/MS
# Type: in vivo, rat
# Conditions: for AUC(0-inf) / Cmax / Tmax / CL/F / MRT / Vd/F / half-life / AUC(0-t) / bioavailability: rat; for CL/F: read-out: CLz/F (converted); for MRT: read-out: MRT(0–t); for Vd/F: read-out: Vz/F; for half-life: read-out: t1/2z (converted); for bioavailability: from AUC, read-out: F (absolute bioavailability)
# Description: The samples were analyzed on a LC-MS/MS system consisting of an Agilent 1290 Infinity II UHPLC System coupled with an Agilent 6460 Triple Quadrupole Mass Spectrometer with an electrospray ionisation source (ESI). The Agilent MassHunter Workstation Qualitative Analysis B.06.00 (Agilent Technologies, Santa Clara, CA, USA) software was used. Chromatographic separation was performed on a Supersil ODS2 column (4.6 mm × 250 mm, 5 μm, Dalian Elite Analytical Instruments, Dalian, China). The separation conditions were 30 °C by using a FA-ACN (0.1:99.9, v/v, A) and FA-water (0.1:99.9, v/v, B) solutions at a flow rate of 0.5 mL/min. The sample injection volume was 20 μL and the autosampler was kept at 4 °C. The initial eluent A-B (20:80, v/v) was changed to A-B (30:70, v/v) in 4 min and subsequently changed to A-B (90:10, v/v) in the next 3 min in a linear gradient form and maintained at this ratio for another 1 min. PMB was used as the IS. MS analysis was carried out in the multiple reaction monitoring (MRM) mode with following operation parameters: capillary voltage, 3.5 kV; gas temperature, 325 °C; nebulizer gas pressure, 35 psi; sheath gas, 11 L/min, 350 °C; fragmentor voltages, 155 V for AWRK6 and 75 V for IS; collision energy (CE), 80 eV for AWRK6 and 40 eV for IS; precursor-to-product ion transition, m/z: 533.3→84.1 for AWRK6 and m/z: 402.1→101.1 for IS.
# The AWRK6 and IS were dissolved in water at 1.0 mg/mL for stock solution. The AWRK6 calibration standards at 0.05, 0.1, 0.5, 1, 2, 5, and 10 μg/mL were prepared by mixing 50 μL of working solution and 100 μL of blank plasma individually. QC samples of AWRK6 at 0.1, 0.5, and 5 μg/mL were prepared by the same method. The thawed plasma samples (100 μL) were mixed with 50 μL water (or QC), 50 μL IS (1 μg/mL), and 20 μL FA-water (25:75, v/v). A combination of plasma precipitation and liquid–liquid extraction was applied for the extraction of AWRK6 in samples. After adding 200 μL methanol and 100 μL dichloromethane, the mixtures were vortexed for 30 s and centrifuged at 14,000 g for 10 min. The supernatant was filtered by 0.22 μm membrane for LC-MS/MS analysis.
# SPF-grade male Sprague Dawley rats (280–320 g, 8 weeks old) were purchased from Liaoning Changsheng Biotechology (Liaoning, China). The rats were housed under a controlled environment (temperature: 25 ± 2 °C; relative humidity: 55 ± 10%; alternating natural light/dark cycles) with free access to food and water unless otherwise noted. The study was approved by the Laboratory Animal Welfare and Ethical Review Board of China Medical University (CMU2019089, 8 March 2019). According to the previous study, the rats was administrated with AWRK6 dissolved in saline intraperitoneally at 2.35, 4.7, and 9.4 mg/kg bodyweight and intravenously at 4.7 mg/kg after being fasted for 12 h. The intravenous doing was administered via the tail vein of the rats. Blood samples were collected from orbital venous plexus at 0.083, 0.167, 0.25, 0.5, 1, 1.5, 2, 3, 4, 6, 8, and 10 h using heparin tubes after administration, followed by centrifugation at 4000 g for 10 min at 4 °C and storage at −80 °C. The obtained data were analyzed using DAS 2.0 software (Anhui Provincial Center for Drug Clinical Evaluation). The absolute bioavailability of AWRK6 for intraperitoneal administration was calculated by the following formula:(1) F=AUCi.p.×Di.v./Di.p.×AUCi.v.×100%
# [1] = male Sprague Dawley rats, single i.v. 4.700 mg/kg (tail vein), plasma, LC-MS/MS, mean ± SD, n = 6
# [2] = ip, 2.35 mg/kg, male Sprague Dawley rats, single i.p. 2.350 mg/kg, plasma, LC-MS/MS, mean ± SD, n = 6
# [3] = ip, 4.7 mg/kg, male Sprague Dawley rats, single i.p. 4.700 mg/kg, plasma, LC-MS/MS, mean ± SD, n = 6
# [4] = ip, 9.4 mg/kg, male Sprague Dawley rats, single i.p. 9.400 mg/kg, plasma, LC-MS/MS, mean ± SD, n = 6
# [5] = iv, 4.7 mg/kg, male Sprague Dawley rats, single i.v. 4.700 mg/kg (tail vein), plasma, LC-MS/MS, mean ± SD, n = 6
# [6] = rats, two-compartment model, weight coefficient of 1, DAS 2.0
substance,measurement,setting,value
SWVGKHGKKFGLKKHKKH-NH2 (C-terminus assumed) [AWRK6],VRT(0–t),"male Sprague Dawley rats, single i.p. 2.350 mg/kg, plasma, LC-MS/MS, mean ± SD, n = 6",2.549 ± 1.480 h^2
same,VRT(0–t),"male Sprague Dawley rats, single i.p. 4.700 mg/kg, plasma, LC-MS/MS, mean ± SD, n = 6",3.859 ± 0.904 h^2
same,VRT(0–t),"male Sprague Dawley rats, single i.p. 9.400 mg/kg, plasma, LC-MS/MS, mean ± SD, n = 6",4.366 ± 1.439 h^2
same,CLz/F,[1],28.32 ± 3.65 mL/min/kg
same,Vz/F,[1],4.884 ± 1.736 L/kg
same,AUC(0-inf),[2],851 ± 221 ng·h/mL
same,Cmax,[2],217 ± 10 ng/mL
same,Tmax,[2],1.17 ± 0.258 h
same,CL/F,[2],48 mL/min/kg
same,MRT,[2],2.26 ± 0.488 h
same,Vd/F,[2],10.9 ± 3.96 L/kg
same,half-life,[2],2.95 ± 2.05 h
same,AUC(0-inf),[3],1590 ± 275 ng·h/mL
same,AUC(0-t),[3],1360 ± 176 ng·h/mL
same,Cmax,[3],454 ± 48 ng/mL
same,Tmax,[3],1.25 ± 0.274 h
same,CL/F,[3],50.6 mL/min/kg
same,MRT,[3],2.49 ± 0.227 h
same,Vd/F,[3],12.3 ± 4.85 L/kg
same,half-life,[3],2.94 ± 1.4 h
same,AUC(0-inf),[4],2910 ± 356 ng·h/mL
same,AUC(0-t),[4],2630 ± 236 ng·h/mL
same,Cmax,[4],888 ± 46 ng/mL
same,Tmax,[4],1.21 ± 0.217 h
same,CL/F,[4],54.4 mL/min/kg
same,MRT,[4],2.52 ± 0.292 h
same,Vd/F,[4],12.7 ± 3.37 L/kg
same,half-life,[4],2.78 ± 1.02 h
same,AUC(0-inf),[5],2800 ± 333 ng·h/mL
same,AUC(0-t),[5],2600 ± 277 ng·h/mL
same,Cmax,[5],2130 ± 174 ng/mL
same,MRT,[5],1.73 ± 0.261 h
same,half-life,[5],1.98 ± 0.583 h
same,bioavailability,"plasma, ip, 2.35 mg/kg, male Sprague Dawley rats, i.p. 2.350 mg/kg versus i.v. 4.700 mg/kg",48.8%
same,bioavailability,"plasma, ip, 4.7 mg/kg, male Sprague Dawley rats, i.p. 4.700 mg/kg versus i.v. 4.700 mg/kg",52.5%
same,bioavailability,"plasma, ip, 9.4 mg/kg, male Sprague Dawley rats, i.p. 9.400 mg/kg versus i.v. 4.700 mg/kg",50.6%
same,time after which plasma concentration was below the LLOQ,"rats, after intraperitoneal injection, LLOQ 0.050 μg/mL",~10 h
same,time at which AWRK6 in plasma was cleared,"rats, after intravenous injection 4.7 mg/kg",about 10 h
same,time at which AWRK6 concentrations in rat plasma peaked,"rats, intraperitoneal injections at 2.35, 4.7 and 9.4 mg/kg bodyweight",about 1.2 h
same,transport rate constant K12,[6],2.55 h⁻¹
same,transport rate constant K21,[6],1.67 h⁻¹
